Residual activity data for seven compounds are collected here from ChEMBL document CHEMBL1240295, “Specificity and mechanism of action of some commonly used protein kinase inhibitors” (Biochem J, 2000).

Test [1] is filed under the species Oryctolagus cuniculus. Kind of test: Inhibition of PHK from rabbit skeletal muscle at 1 uM. In kind it is tissue-based. The note with it: Muscle tissue, values are per cent of control.
For test [2], the target named is Protein kinase C alpha type (Homo sapiens, UniProt P17252). In words: Inhibition of His-tagged human PKCalpha expressed in Escherichia coli at 1 uM. The note with it: values are per cent of control.
Test [3] concerns the target Ribosomal protein S6 kinase alpha-5 (Homo sapiens, UniProt O75582). In words: Inhibition of His-tagged human MSK1 expressed in Sf9 cells at 1 uM; values are per cent of control.
In test [4] the target is T1, Serine/threonine-protein kinase Chk1 (Homo sapiens) (UniProt O14757).
T1 sequence (whole entry): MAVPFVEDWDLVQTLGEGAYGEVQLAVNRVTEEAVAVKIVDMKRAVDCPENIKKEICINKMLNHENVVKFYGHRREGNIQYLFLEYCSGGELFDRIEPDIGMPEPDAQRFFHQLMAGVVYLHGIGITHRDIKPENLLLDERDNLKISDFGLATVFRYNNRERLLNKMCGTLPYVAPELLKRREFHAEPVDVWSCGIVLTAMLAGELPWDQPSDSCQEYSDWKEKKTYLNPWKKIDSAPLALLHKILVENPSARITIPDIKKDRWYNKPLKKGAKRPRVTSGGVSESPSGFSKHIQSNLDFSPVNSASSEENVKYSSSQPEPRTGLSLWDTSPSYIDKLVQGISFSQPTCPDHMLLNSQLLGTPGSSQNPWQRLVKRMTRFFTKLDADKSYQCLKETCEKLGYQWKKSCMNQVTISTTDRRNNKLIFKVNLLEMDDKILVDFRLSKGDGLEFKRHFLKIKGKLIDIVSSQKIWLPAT
In words: Inhibition of His-tagged human CHK1 expressed in Escherichia coli at 1 uM; values are per cent of control.

The species entered for test [5] is Oryctolagus cuniculus. In words: Inhibition of rabbit MKK1 expressed in Escherichia coli at 1 uM. The note with it: values are per cent of control.
Another test is filed under the species Rattus norvegicus. In words: Inhibition of rat liver AMPK at 1 uM. The note with it: values are per cent of control.
In test [6] the target is Mitogen-activated protein kinase 8 (Homo sapiens) (UniProt P45983). Kind of test: Inhibition of His-tagged human JNK1a1/SAPK1c expressed in Escherichia coli at 1 uM; values are per cent of control.
In test [7] the target is Rho-associated protein kinase 2 (Rattus norvegicus) (UniProt Q62868). In words: Inhibition of rat ROCK2 expressed in Sf9 cells at 1 uM. The note with it: values are per cent of control.
Test [8] deals with T2, MAP kinase-activated protein kinase 5 (Homo sapiens) (UniProt Q8IW41).
T2 sequence (whole entry): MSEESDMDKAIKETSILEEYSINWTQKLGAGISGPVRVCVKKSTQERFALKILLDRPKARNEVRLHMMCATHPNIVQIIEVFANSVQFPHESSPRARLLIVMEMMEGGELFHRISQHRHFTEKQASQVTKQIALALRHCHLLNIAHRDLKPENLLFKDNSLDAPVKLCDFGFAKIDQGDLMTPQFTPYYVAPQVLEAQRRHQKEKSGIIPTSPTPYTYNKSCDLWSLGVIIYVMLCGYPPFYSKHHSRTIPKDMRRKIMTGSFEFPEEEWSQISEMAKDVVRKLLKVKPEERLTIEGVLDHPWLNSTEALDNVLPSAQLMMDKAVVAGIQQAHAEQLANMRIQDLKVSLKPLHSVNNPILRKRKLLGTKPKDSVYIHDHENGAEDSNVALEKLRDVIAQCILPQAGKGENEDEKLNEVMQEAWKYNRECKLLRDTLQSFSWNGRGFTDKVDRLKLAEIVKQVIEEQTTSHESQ
In words: Inhibition of His-tagged human PRAK expressed in Sf9 cells at 1 uM; values are per cent of control.

For test [9], the species on record is Oryctolagus cuniculus. Kind of test: Inhibition of MAPKAPK1b from rabbit skeletal muscle at 1 uM. In kind it is tissue-based. The note with it: Muscle tissue, values are per cent of control.
Test [10] concerns the target T3, Mitogen-activated protein kinase 12 (Homo sapiens) (UniProt P53778).
T3 sequence (whole entry): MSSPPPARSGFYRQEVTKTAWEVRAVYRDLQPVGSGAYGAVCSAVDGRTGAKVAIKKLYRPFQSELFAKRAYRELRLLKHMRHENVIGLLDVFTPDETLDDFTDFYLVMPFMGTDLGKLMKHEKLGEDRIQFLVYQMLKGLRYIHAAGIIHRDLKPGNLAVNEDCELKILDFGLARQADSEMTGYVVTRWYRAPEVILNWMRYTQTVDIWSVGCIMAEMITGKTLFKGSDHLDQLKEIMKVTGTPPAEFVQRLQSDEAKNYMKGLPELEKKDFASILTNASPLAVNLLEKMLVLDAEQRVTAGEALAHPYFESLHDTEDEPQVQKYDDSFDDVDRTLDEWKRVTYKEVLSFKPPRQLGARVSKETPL
Kind of test: Inhibition of His-tagged human SAPK3/p38gamma expressed in Escherichia coli at 1 uM; values are per cent of control.

Test [11] concerns the target RAC-alpha serine/threonine-protein kinase (Homo sapiens) (UniProt P31749). Kind of test: Inhibition of human PKBalpha expressed in SF9 cells at 1 uM. The note with it: values are per cent of control.
For test [12], the target named is Mitogen-activated protein kinase 1 (Homo sapiens) (UniProt P28482). In words: Inhibition of His-tagged human MAPK2/ERK2 expressed in Escherichia coli at 1 uM; values are per cent of control.
In test [13] the target is Casein kinase II (Homo sapiens) (UniProt P67870+P68400+P19784). Kind of test: Inhibition of His-tagged human CK2 expressed in Sf9 cells at 1 uM. The note with it: values are per cent of control.
A further test is filed under the species Bos taurus. In words: Inhibition of bovine heart PKA at 1 uM. The note with it: values are per cent of control.
The target in test [14] is 3-phosphoinositide-dependent protein kinase 1 (Homo sapiens) (UniProt O15530). Kind of test: Inhibition of His-tagged human PDK1 expressed in Sf21 cells at 1 uM. The note with it: values are per cent of control.
In test [15] the target is Mitogen-activated protein kinase 14 (Homo sapiens) (UniProt Q16539). In words: Inhibition of His-tagged human SAPK2a/p38 expressed in Escherichia coli at 1 uM; values are per cent of control.
Chain of Mitogen-activated protein kinase 14 (Homo sapiens) (Q16539 whole entry): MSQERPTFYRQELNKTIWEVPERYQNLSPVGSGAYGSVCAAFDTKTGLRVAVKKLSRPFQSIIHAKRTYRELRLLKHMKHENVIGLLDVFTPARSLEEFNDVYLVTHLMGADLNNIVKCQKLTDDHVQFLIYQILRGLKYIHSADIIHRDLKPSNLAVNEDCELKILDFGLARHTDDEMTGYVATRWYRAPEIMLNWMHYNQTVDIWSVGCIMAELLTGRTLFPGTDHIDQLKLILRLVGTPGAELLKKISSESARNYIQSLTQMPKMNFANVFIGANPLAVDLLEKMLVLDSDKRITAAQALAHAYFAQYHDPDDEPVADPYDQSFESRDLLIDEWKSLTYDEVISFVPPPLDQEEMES

Chain of Mitogen-activated protein kinase 1 (Homo sapiens) (P28482 whole entry): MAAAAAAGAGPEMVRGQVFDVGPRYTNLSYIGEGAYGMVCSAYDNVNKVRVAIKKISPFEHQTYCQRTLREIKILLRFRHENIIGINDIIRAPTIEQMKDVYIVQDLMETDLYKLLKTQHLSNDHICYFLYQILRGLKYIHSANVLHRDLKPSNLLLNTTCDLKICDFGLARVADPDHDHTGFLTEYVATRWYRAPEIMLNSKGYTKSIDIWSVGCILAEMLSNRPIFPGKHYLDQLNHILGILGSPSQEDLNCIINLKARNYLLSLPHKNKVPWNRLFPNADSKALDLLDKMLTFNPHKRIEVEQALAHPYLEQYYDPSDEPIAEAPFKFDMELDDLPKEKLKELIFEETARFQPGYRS
Chain of Mitogen-activated protein kinase 8 (Homo sapiens) (P45983 whole entry): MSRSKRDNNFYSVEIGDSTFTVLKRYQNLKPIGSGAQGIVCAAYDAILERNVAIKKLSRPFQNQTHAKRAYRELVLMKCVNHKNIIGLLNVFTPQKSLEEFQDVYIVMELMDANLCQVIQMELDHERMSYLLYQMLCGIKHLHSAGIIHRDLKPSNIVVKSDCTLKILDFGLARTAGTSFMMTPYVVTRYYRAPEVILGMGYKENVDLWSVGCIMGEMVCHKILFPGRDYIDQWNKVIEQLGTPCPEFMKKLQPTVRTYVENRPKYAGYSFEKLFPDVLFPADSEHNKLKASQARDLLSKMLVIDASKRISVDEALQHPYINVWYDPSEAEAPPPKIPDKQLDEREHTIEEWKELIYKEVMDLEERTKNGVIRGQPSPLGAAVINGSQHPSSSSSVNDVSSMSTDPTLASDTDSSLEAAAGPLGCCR
Chain of 3-phosphoinositide-dependent protein kinase 1 (Homo sapiens) (O15530 whole entry, looked up): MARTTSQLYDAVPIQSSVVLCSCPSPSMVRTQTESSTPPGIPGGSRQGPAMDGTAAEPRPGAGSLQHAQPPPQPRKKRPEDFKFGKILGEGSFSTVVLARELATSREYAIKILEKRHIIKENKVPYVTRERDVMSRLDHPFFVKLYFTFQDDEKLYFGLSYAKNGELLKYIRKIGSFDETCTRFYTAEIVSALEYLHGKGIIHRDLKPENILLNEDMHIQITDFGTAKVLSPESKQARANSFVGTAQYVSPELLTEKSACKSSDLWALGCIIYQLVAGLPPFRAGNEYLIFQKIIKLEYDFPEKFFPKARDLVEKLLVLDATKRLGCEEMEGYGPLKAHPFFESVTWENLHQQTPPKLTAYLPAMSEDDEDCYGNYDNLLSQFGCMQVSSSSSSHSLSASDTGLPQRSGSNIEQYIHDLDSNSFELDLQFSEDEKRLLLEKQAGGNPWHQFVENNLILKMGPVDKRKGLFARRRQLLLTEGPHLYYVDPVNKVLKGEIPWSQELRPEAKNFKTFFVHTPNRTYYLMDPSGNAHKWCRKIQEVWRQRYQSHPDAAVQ
Chain of Ribosomal protein S6 kinase alpha-5 (O75582 whole entry, looked up): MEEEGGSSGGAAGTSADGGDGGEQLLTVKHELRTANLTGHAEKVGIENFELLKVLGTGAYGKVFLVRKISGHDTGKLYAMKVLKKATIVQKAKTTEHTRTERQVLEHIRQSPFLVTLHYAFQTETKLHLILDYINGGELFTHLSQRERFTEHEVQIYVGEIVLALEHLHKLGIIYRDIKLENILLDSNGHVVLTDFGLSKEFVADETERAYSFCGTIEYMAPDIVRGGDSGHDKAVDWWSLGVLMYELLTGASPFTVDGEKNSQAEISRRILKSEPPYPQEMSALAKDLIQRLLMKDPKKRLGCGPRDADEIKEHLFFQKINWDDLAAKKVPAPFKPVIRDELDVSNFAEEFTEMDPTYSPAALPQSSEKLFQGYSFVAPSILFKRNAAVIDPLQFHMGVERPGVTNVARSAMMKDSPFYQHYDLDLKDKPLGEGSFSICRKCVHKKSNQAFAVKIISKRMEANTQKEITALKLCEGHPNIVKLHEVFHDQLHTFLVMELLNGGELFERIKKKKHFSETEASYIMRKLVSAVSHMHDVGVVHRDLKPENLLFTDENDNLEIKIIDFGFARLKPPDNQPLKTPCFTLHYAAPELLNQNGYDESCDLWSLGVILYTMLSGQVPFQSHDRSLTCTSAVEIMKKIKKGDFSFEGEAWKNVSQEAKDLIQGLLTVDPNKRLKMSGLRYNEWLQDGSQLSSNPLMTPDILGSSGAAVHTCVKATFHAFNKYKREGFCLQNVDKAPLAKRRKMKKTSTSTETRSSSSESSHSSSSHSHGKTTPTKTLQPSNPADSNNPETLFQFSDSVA
Chain of Rho-associated protein kinase 2 (Rattus norvegicus) (Q62868 whole entry, looked up): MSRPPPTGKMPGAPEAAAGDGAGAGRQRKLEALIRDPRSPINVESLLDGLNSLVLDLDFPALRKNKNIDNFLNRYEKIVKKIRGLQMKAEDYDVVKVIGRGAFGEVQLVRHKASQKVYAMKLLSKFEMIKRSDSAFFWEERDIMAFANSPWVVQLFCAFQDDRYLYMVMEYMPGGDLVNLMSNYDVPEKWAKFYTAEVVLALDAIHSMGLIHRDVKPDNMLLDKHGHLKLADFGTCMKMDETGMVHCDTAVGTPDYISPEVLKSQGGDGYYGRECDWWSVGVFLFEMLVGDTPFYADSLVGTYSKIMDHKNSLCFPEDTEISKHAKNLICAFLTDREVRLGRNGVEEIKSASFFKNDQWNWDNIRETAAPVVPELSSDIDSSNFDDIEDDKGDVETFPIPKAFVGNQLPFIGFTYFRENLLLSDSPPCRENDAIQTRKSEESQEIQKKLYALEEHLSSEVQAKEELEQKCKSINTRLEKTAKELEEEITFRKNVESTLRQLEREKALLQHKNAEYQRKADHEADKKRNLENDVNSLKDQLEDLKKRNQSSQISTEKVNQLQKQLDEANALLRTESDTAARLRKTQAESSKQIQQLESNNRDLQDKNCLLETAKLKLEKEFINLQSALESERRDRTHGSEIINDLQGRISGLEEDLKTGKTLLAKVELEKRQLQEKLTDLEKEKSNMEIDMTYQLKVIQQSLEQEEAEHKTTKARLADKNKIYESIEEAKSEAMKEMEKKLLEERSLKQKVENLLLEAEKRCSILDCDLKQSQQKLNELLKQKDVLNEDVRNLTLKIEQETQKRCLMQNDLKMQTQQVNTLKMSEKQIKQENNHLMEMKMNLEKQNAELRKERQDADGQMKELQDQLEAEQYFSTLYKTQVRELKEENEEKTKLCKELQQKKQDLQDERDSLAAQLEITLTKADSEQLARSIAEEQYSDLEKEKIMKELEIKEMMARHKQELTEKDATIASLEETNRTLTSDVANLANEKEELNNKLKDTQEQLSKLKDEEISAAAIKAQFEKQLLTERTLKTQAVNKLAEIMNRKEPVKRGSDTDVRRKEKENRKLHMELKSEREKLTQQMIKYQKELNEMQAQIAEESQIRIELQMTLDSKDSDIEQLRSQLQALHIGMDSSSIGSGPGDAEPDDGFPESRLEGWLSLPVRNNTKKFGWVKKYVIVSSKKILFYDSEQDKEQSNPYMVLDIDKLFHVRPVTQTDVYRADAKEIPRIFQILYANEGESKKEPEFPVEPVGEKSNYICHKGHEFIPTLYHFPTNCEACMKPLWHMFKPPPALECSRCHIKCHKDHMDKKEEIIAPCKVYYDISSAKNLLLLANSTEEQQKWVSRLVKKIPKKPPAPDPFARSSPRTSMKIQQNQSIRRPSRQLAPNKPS
Chain of RAC-alpha serine/threonine-protein kinase (Homo sapiens) (P31749 whole entry): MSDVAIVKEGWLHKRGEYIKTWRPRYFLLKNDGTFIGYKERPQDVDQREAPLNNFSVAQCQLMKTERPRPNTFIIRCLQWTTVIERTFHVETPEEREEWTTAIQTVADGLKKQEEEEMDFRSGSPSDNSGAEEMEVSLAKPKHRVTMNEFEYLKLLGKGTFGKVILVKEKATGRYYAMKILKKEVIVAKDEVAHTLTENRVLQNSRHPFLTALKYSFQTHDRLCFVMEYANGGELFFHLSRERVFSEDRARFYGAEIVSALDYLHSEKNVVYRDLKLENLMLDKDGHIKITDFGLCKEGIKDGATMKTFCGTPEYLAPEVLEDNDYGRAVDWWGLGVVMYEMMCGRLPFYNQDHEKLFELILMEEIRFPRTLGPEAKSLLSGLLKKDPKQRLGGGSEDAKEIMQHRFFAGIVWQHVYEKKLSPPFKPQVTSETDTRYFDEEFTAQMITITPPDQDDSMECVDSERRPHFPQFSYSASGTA

Take `COC[C@H]1OC(=O)c2coc3c2[C@@]1(C)C1=C(C3=O)[C@@H]2CCC(=O)[C@@]2(C)C[C@H]1OC(C)=O` [WORTMANNIN]: the residual activity is 100% in the test listed under Oryctolagus cuniculus [1]; 100% in test [2]; 99% in test [3]; 99% in test [4]; 96% in the test filed under Oryctolagus cuniculus [5]; 106% in the test listed under Rattus norvegicus. Further, the residual activity was found to be 97% in test [6]; 91% in test [7]; 85% in test [8]; 92% in the test filed under Oryctolagus cuniculus [9]; 75% in test [10]; 96% in test [11]. Also, the residual activity was 90% in [12]; 98% in [13]; 97% in the test listed under Bos taurus; 88% in test [14]; 86% in test [15].
Regarding `Cn1cc(C2=C(c3cn(CCCN)c4ccccc34)C(=O)NC2=O)c2ccccc21`, the residual activity in the test listed under Oryctolagus cuniculus [1] came to 58%; in test [2], 14%; in test [3] it was 13%; in test [4], 71%; in the test listed under Oryctolagus cuniculus [5], 99%; in the test filed under Rattus norvegicus, 60%. Moreover, the residual activity in test [6] is 95%; in test [7], 106%; in test [8] it was 102%; in the test listed under Oryctolagus cuniculus [9] it was 4%; in [10], 107%; in [11] it was 98%. Besides, the residual activity in test [12] amounted to 105%; in [13], 103%; in the test filed under Bos taurus, 94%; in test [14], 107%; in test [15], 115%.
`O=C1NC(=O)C(c2c[nH]c3ccccc23)=C1c1c[nH]c2ccccc12`: the residual activity in the test listed under Oryctolagus cuniculus [1] turned out to be 90%; in test [2] it was 57%; in test [3] it was 56%; in [4], 91%; in the test filed under Oryctolagus cuniculus [5], 84%; in the test listed under Rattus norvegicus, 96%. Besides, the residual activity is 95% in test [6]; 100% in [7]; 96% in test [8]; 54% in the test filed under Oryctolagus cuniculus [9]; 83% in test [10]; 101% in test [11]. The residual activity in [12] was 86%; in test [13], 99%; in the test filed under Bos taurus, 93%; in [14], 95%; in [15] it was 90%.
In the case of `CO[C@H]1C[C@@H]2CC[C@@H](C)[C@@](O)(O2)C(=O)C(=O)N2CCCC[C@H]2C(=O)O[C@H]([C@H](C)C[C@@H]2CC[C@@H](O)[C@H](OC)C2)CC(=O)[C@H](C)/C=C(\C)[C@@H](O)[C@@H](OC)C(=O)[C@H](C)C[C@H](C)/C=C/C=C/C=C/1C`, the residual activity was found to be 103% in the test listed under Oryctolagus cuniculus [1]; 99% in test [2]; 104% in [3]; 102% in test [4]; 99% in the test filed under Oryctolagus cuniculus [5]; 106% in the test filed under Rattus norvegicus. For the same compound, the residual activity amounted to 98% in test [6]; 92% in test [7]; 74% in test [8]; 95% in the test filed under Oryctolagus cuniculus [9]; 100% in test [10]; 91% in test [11]. The residual activity was 90% in test [12]; 104% in test [13]; 104% in the test filed under Bos taurus; 110% in test [14]; 93% in test [15].
Consider `Cn1cc(C2=C(c3cn(CCCSC(=N)N)c4ccccc34)C(=O)NC2=O)c2ccccc21` [BISINDOLYLMALEIMIDE IX], for which the residual activity turned out to be 57% in the test filed under Oryctolagus cuniculus [1]; 3% in test [2]; 2% in [3]; 42% in test [4]; 94% in the test filed under Oryctolagus cuniculus [5]; 42% in the test listed under Rattus norvegicus. Besides, the residual activity in test [6] amounted to 95%; in test [7] it was 92%; in test [8], 96%; in the test listed under Oryctolagus cuniculus [9], 2%; in test [10], 92%; in test [11] it was 73%. Also, the residual activity in test [12] worked out at 97%; in test [13], 104%; in the test listed under Bos taurus it was 70%; in test [14], 84%; in test [15] it was 84%.
Regarding `Cn1cc(C2=C(c3c4n(c5ccccc35)CCC(CN)C4)C(=O)NC2=O)c2ccccc21` (centres undefined), the residual activity worked out at 60% in the test filed under Oryctolagus cuniculus [1]; 1% in test [2]; 5% in test [3]; 50% in test [4]; 94% in the test filed under Oryctolagus cuniculus [5]; 71% in the test filed under Rattus norvegicus. The residual activity in test [6] was found to be 103%; in test [7] it was 103%; in test [8], 101%; in the test listed under Oryctolagus cuniculus [9], 5%; in test [10] it was 116%; in test [11], 104%. Also, the residual activity in test [12] turned out to be 106%; in test [13], 104%; in the test filed under Bos taurus it was 90%; in [14] it was 122%; in [15], 117%.
On to `CN1C(=O)C(c2c[nH]c3ccccc23)=C(c2c[nH]c3ccccc23)C1=O`, for which the residual activity is 100% in the test filed under Oryctolagus cuniculus [1]; 104% in test [2]; 103% in [3]; 104% in test [4]; 99% in the test listed under Oryctolagus cuniculus [5]; 102% in the test filed under Rattus norvegicus. Further, the residual activity came to 100% in test [6]; 107% in test [7]; 85% in test [8]; 92% in the test filed under Oryctolagus cuniculus [9]; 99% in test [10]; 91% in test [11]. The residual activity is 101% in test [12]; 98% in test [13]; 95% in the test filed under Bos taurus; 109% in test [14]; 101% in test [15].
